The values below come from ChEMBL document CHEMBL1201862, “PubChem BioAssay data set” (2004).

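Compound exposure: 48 hours, 5 concentrations, 96-well plates. The concentration for 50% growth inhibition is given as GI50.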 Calls of active or inactive are those of the source. Cut-off read from the data, not from the text of the source: active = GI50 up to about 1.1 µM and inactive = higher.

Test systems include KM12; ACHN; SK-OV-3; OVCAR-3; UO-31; HCT-15; CCRF-CEM; RXF 393; NCI-H23; SR; HCC 2998; COLO 205; IGROV-1; SNB-75; Malme-3M; HOP-62; PC-3; T47D; MCF7; MDA-N.
Assay in all cases: NCI-60 cell line screen, 48 h

In the case of `COc1cc2c(c(OC)c1OC)-c1ccc(SC)c(=O)cc1C(CO)C2` (stereo unspecified), the GI50 is 0.0813 µM (active) with KM12; 0.513 µM (active) in the experiment on ACHN; 0.109 µM (active) with SK-OV-3; 0.164 µM (active) in the experiment with OVCAR-3; 0.455 µM (active) with UO-31; 0.227 µM with HCT-15. For the same molecule, the GI50 with CCRF-CEM was 0.0891 µM (active); with RXF 393 it was 0.104 µM (active); in the experiment on NCI-H23, 0.307 µM (active); in the experiment on SR, 0.0203 µM (active); in the experiment with HCC 2998, 0.185 µM (active); with COLO 205, 0.166 µM (active). Moreover, the GI50 with IGROV-1 was 0.169 µM (active); in the experiment with SNB-75, 0.0326 µM (active); with Malme-3M, 0.0811 µM (active); in the experiment on HOP-62, 0.233 µM (active).

Regarding `O=CC(O)C(O)C(O)COc1cc(CO)cc2c1C(=O)c1ccccc1C2=O` (stereo unspecified), the GI50 in the experiment with KM12 was > 100 µM (inactive); in the experiment with ACHN, > 31.6 µM (inactive); with SK-OV-3, > 100 µM (inactive); in the experiment with OVCAR-3, 76.4 µM (inactive); in the experiment with UO-31 it was > 100 µM (inactive); in the experiment on HCT-15, more than 100 µM. Besides, the GI50 was > 100 µM (inactive) with CCRF-CEM; > 100 µM (inactive) in the experiment with RXF 393; > 100 µM (inactive) in the experiment with NCI-H23; > 88.3 µM (inactive) in the experiment on SR; > 100 µM (inactive) in the experiment on HCC 2998; > 100 µM (inactive) in the experiment with COLO 205. Besides, the GI50 in the experiment with IGROV-1 was > 100 µM (inactive); in the experiment on SNB-75, > 100 µM (inactive); with Malme-3M it was 98.9 µM (inactive); with HOP-62 it was > 100 µM (inactive).

As to `Fc1ccccc1/N=c1\oc2ccc(Br)cc2cc1-c1nc2ccccc2[nH]1`, the GI50 in the experiment with KM12 was > 20.7 µM (inactive); with ACHN it was 6.9 µM (inactive); in the experiment with SK-OV-3, 10.7 µM (inactive); in the experiment with OVCAR-3 it was 6.15 µM (inactive); with UO-31, 8.04 µM (inactive); with PC-3, 7.4 µM (inactive). Moreover, the GI50 with HCT-15 is 30.1 µM; in the experiment on CCRF-CEM it was > 100 µM (inactive); in the experiment on RXF 393, 7.64 µM (inactive); with NCI-H23 it was 7.33 µM (inactive); in the experiment on SR it was > 25.6 µM (inactive); in the experiment on HCC 2998, 10.4 µM (inactive). The GI50 is 35.6 µM (inactive) in the experiment on COLO 205; 38.3 µM (inactive) in the experiment with T47D; 8.95 µM (inactive) with IGROV-1; 1.84 µM (inactive) in the experiment on SNB-75; 2.32 µM (inactive) in the experiment on Malme-3M; 3.65 µM (inactive) with HOP-62. In the experiment on MCF7, the GI50 is 14.8 µM (inactive).

Turning to `COc1ccc(N2C(=O)c3c(c4[nH]c5ccccc5c4c4ccc(C(C)(C)C)cc34)C2=O)cc1`, the GI50 with KM12 is 64.9 µM (inactive); in the experiment with ACHN, 46.3 µM (inactive); with SK-OV-3, 42.1 µM (inactive); in the experiment on OVCAR-3, 27.2 µM (inactive); in the experiment on UO-31 it was 97.1 µM (inactive); in the experiment with HCT-15, 42.8 µM. Moreover, the GI50 in the experiment on CCRF-CEM is 21.3 µM (inactive); in the experiment with RXF 393, 45.7 µM (inactive); in the experiment on NCI-H23 it was 20 µM (inactive); in the experiment on SR it was 21.2 µM (inactive); in the experiment on HCC 2998, > 100 µM (inactive); in the experiment on COLO 205, 37.3 µM (inactive). For the same molecule, the GI50 in the experiment with IGROV-1 was > 100 µM (inactive); in the experiment on SNB-75, 16.6 µM (inactive); in the experiment with Malme-3M it was 83 µM (inactive); with HOP-62, 42.8 µM (inactive).

As to `C[n+]1c2ccc(Cl)cc2nc2cc(-c3ccccc3)ccc21`, the GI50 in the experiment with KM12 was 4.65 µM (inactive); in the experiment with ACHN it was 18.9 µM (inactive); in the experiment on OVCAR-3 it was 2.03 µM (inactive); with UO-31 it was 21.3 µM (inactive); in the experiment with PC-3, 10.5 µM (inactive); with HCT-15, 7.76 µM. Besides, the GI50 was 60.7 µM (inactive) in the experiment with CCRF-CEM; 26.1 µM (inactive) in the experiment with RXF 393; 5.41 µM (inactive) in the experiment with NCI-H23; 2.67 µM (inactive) in the experiment with SR; 4.95 µM (inactive) in the experiment on HCC 2998; 3.58 µM (inactive) with COLO 205. Also, the GI50 was 10 µM (inactive) in the experiment on IGROV-1; 24.7 µM (inactive) in the experiment on SNB-75; 19.4 µM (inactive) in the experiment on Malme-3M; 23 µM (inactive) with HOP-62; 1.32 µM (inactive) in the experiment on MCF7.

Take `Cc1ccc(S(=O)(=O)NNS(C)(=O)=O)cc1`: the GI50 was > 100 µM (inactive) with KM12; > 100 µM (inactive) in the experiment with ACHN; > 100 µM (inactive) in the experiment on OVCAR-3; > 100 µM (inactive) in the experiment with UO-31; more than 100 µM in the experiment on HCT-15; > 100 µM (inactive) in the experiment with CCRF-CEM. Besides, the GI50 in the experiment on RXF 393, in the experiment with NCI-H23, in the experiment on SR, in the experiment with HCC 2998, with COLO 205 and in the experiment on IGROV-1 was > 100 µM (inactive) throughout. The GI50 in the experiment with SNB-75, in the experiment on Malme-3M and in the experiment with HOP-62 was > 100 µM (inactive) throughout.

`CCOC(=O)C1Oc2ccc([N+](=O)[O-])cc2C1(C)O` (stereo unspecified): the GI50 with KM12 is > 100 µM (inactive); in the experiment with ACHN, > 100 µM (inactive); in the experiment on SK-OV-3, > 100 µM (inactive); with OVCAR-3, > 100 µM (inactive); with UO-31, > 100 µM (inactive); with HCT-15 it was more than 100 µM. Further, the GI50 with CCRF-CEM, with RXF 393, with NCI-H23, with SR, in the experiment with HCC 2998 and in the experiment on COLO 205 was > 100 µM (inactive) throughout. For the same molecule, the GI50 with IGROV-1, with SNB-75, in the experiment on Malme-3M and in the experiment with HOP-62 was > 100 µM (inactive) each time.

On to `CCOC(OC1=C(C#N)CCC1)C(CC)[Se]c1ccccc1` (stereo unspecified), for which the GI50 in the experiment with KM12 was 64.4 µM (inactive); in the experiment with ACHN, 29.8 µM (inactive); in the experiment on SK-OV-3, > 100 µM (inactive); in the experiment on OVCAR-3 it was 22.1 µM (inactive); in the experiment with UO-31, 24.2 µM (inactive); in the experiment on HCT-15, 25.6 µM. Also, the GI50 with CCRF-CEM is 15.6 µM (inactive); in the experiment on RXF 393, 20.9 µM (inactive); in the experiment on NCI-H23, 9.98 µM (inactive); in the experiment on SR, 7.19 µM (inactive); in the experiment on HCC 2998, 13.6 µM (inactive); in the experiment with COLO 205, 19.5 µM (inactive). Also, the GI50 was 24.9 µM (inactive) in the experiment on IGROV-1, 24.2 µM (inactive) in the experiment on SNB-75, 11.4 µM (inactive) in the experiment on Malme-3M and > 100 µM (inactive) in the experiment on HOP-62.

For `C=C(Cl)C(=C)CCC(Cl)C(C)(C)Cl` (stereo unspecified), the GI50 with KM12, with ACHN, in the experiment on SK-OV-3, in the experiment on OVCAR-3, in the experiment with UO-31 and in the experiment with PC-3 was > 100 µM (inactive) throughout. For the same molecule, the GI50 with CCRF-CEM, in the experiment on RXF 393, in the experiment with NCI-H23, in the experiment with SR, in the experiment on HCC 2998 and in the experiment on COLO 205 was > 100 µM (inactive) throughout. For the same molecule, the GI50 in the experiment with IGROV-1, in the experiment with SNB-75, with Malme-3M, in the experiment with HOP-62, with MDA-N and in the experiment with MCF7 was > 100 µM (inactive) in each case.

As for `Cc1ccccc1-c1nc2c(N)nc(N)nc2nc1N`, the GI50 is 29.8 µM (inactive) in the experiment on KM12; 5.6 µM (inactive) in the experiment with ACHN; > 100 µM (inactive) in the experiment with SK-OV-3; > 100 µM (inactive) in the experiment with OVCAR-3; 12 µM (inactive) in the experiment with UO-31; 4.46 µM (inactive) in the experiment on PC-3. Further, the GI50 with HCT-15 is 4.15 µM; in the experiment with CCRF-CEM it was 4.74 µM (inactive); in the experiment with NCI-H23, 4.95 µM (inactive); in the experiment on SR, 62.7 µM (inactive); in the experiment with HCC 2998, 25.2 µM (inactive); with COLO 205, 25.5 µM (inactive). Further, the GI50 in the experiment on IGROV-1 was 6.82 µM (inactive); in the experiment with SNB-75 it was 22.3 µM (inactive); in the experiment on HOP-62 it was 25.9 µM (inactive); in the experiment on MDA-N, 4.56 µM (inactive); with MCF7, 30.2 µM (inactive).

`C=CCOC1=C2CC[C@H](O)[C@@]2(C)CCC1=O`: the GI50 in the experiment on KM12 was > 100 µM (inactive); with ACHN it was > 100 µM (inactive); in the experiment with SK-OV-3 it was > 100 µM (inactive); in the experiment on OVCAR-3 it was > 100 µM (inactive); in the experiment with UO-31, > 100 µM (inactive); with HCT-15, more than 100 µM. Moreover, the GI50 in the experiment with CCRF-CEM, with RXF 393, in the experiment with SR, in the experiment on HCC 2998, in the experiment with COLO 205 and with IGROV-1 was > 100 µM (inactive) throughout. In addition, the GI50 in the experiment on SNB-75, in the experiment on Malme-3M and in the experiment on HOP-62 was > 100 µM (inactive) each time.

Turning to `OB1OCc2ccccc21` [BENZOXABOROLE], the GI50 is 65.9 µM (inactive) in the experiment with KM12; 16.1 µM (inactive) in the experiment on SK-OV-3; 60.4 µM (inactive) in the experiment on OVCAR-3; 32.4 µM (inactive) with UO-31; 20 µM (inactive) with PC-3; 24.7 µM in the experiment on HCT-15. For the same molecule, the GI50 with CCRF-CEM was 18 µM (inactive); in the experiment on NCI-H23, 36.7 µM (inactive); with SR, 52.7 µM (inactive); with COLO 205 it was 33.7 µM (inactive); in the experiment on T47D, > 100 µM (inactive); in the experiment with IGROV-1, 35.2 µM (inactive). Besides, the GI50 is > 100 µM (inactive) in the experiment on Malme-3M, 26.7 µM (inactive) in the experiment on HOP-62 and 24.9 µM (inactive) in the experiment with MCF7.
